In US10800772B2 (Gilead Sciences, Inc., priority 2016, dated 2020):
Where two headings read alike, the source gives them in different places.

Columns and labels:
Type in all cases: cell-based, HIV-1
HIV-IIIb (wildtype) = assay: Antiviral assay in MT4 cells, HIV-IIIb wildtype; details: read-out: WT EC50
Outline: (§1)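 First, MT4 cells are infected with HIV-IIIb for 3 h at 37 °C (0.004 m.o.i.). Next, 2000 cells are added per well to 3-fold serial compound dilutions and cultured for 5 days. Finally, CellTiter-Glo chemiluminescence is read and EC50 is derived from the 50% signal decrease.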

HIV-IIIb IN T174I BT = assay: Antiviral assay in MT4 cells, HIV-IIIb IN T174I BT virus (from viral breakthrough); details: Human immunodeficiency virus 1, IIIB, MT4, 120 h, read-out: T174I BT EC50, MT4 cells, HIV-IIIb IN T174I BT (viral breakthrough), 5 days, CellTiter-Glo
Outline: as §1

HIV-IIIb IN T174I DE = assay: Antiviral assay in MT4 cells, HIV-IIIb IN T174I DE virus (from dose escalation passaging); details: Human immunodeficiency virus 1, IIIB, MT4, 120 h, read-out: T174I DE EC50, MT4 cells, HIV-IIIb IN T174I DE (dose escalation), 5 days, CellTiter-Glo
Outline: as §1

[1] = Human immunodeficiency virus 1, IIIB, MT4, 120 h

Compound | EC50 (HIV-IIIb (wildtype); [1]) [nM] | EC50 (HIV-IIIb IN T174I BT) [nM] | EC50 (HIV-IIIb IN T174I DE) [nM] | EC50 (HIV-IIIb (wildtype); Human immunodeficiency virus 1, 120 h, MT4 cells, HIV-IIIb wildtype, 5 days, CellTiter-Glo) [nM]
COC(=O)N1CC(N2CCC(c3nn(C)c4ncc(-c5nc6cc(C)c([C@H](OC(C)(C)C)C(=O)O)c(-c7ccc(Cl)cc7)c6s5)cc34)CC2)C1 [Compound 114, (S)-2-(tert-butoxy)-2-(7-(4-chlorophenyl)-2-(3-(1-(1-(methoxycarbonyl)azetidin-3-yl)piperidin-4-yl)-1-methyl-1H-pyrazolo[3,4-b]pyridin-5-yl)-5-methylbenzo[d]thiazol-6-yl)acetic acid] | 12 | 1080 | 2200 | 
CCOC(=O)N1CC(N2CCC(c3nn(C)c4ncc(-c5nc6cc(C)c([C@H](OC(C)(C)C)C(=O)O)c(-c7ccc(Cl)cc7)c6s5)cc34)CC2)C1 [Compound 115, (S)-2-(tert-butoxy)-2-(7-(4-chlorophenyl)-2-(3-(1-(1-(ethoxycarbonyl)azetidin-3-yl)piperidin-4-yl)-1-methyl-1H-pyrazolo[3,4-b]pyridin-5-yl)-5-methylbenzo[d]thiazol-6-yl)acetic acid] | 14 | 1600 | 2450 | 
Cc1cc2nc(-c3cnc4c(c3)c(C3CCN(C5CN(C(=O)OC(C)(C)C)C5)CC3)nn4C)sc2c(-c2ccc(Cl)cc2)c1[C@H](OC(C)(C)C)C(=O)O [Compound 116, (S)-2-(tert-butoxy)-2-(2-(3-(1-(1-(tert-butoxycarbonyl)azetidin-3-yl)piperidin-4-yl)-1-methyl-1H-pyrazolo[3,4-b]pyridin-5-yl)-7-(4-chlorophenyl)-5-methylbenzo[d]thiazol-6-yl)acetic acid] | 40 | 3810 | 5190 | 
CC(=O)N1CC(N2CCC(c3nn(C)c4ncc(-c5nc6cc(C)c([C@H](OC(C)(C)C)C(=O)O)c(-c7ccc(Cl)cc7)c6s5)cc34)CC2)C1 [Compound 117, (S)-2-(2-(3-(1-(1-acetylazetidin-3-yl)piperidin-4-yl)-1-methyl-1H-pyrazolo[3,4-b]pyridin-5-yl)-7-(4-chlorophenyl)-5-methylbenzo[d]thiazol-6-yl)-2-(tert-butoxy)acetic acid] | 27 | 1180 | 1690 | 
Cc1cc2nc(-c3cnc4c(n3)c(C3CCN(C5COC5)CC3)nn4C)sc2c(-c2ccc(Cl)cc2)c1[C@H](OC(C)(C)C)C(=O)O [Compound 118, (S)-2-(tert-butoxy)-2-(7-(4-chlorophenyl)-5-methyl-2-(1-methyl-3-(1-(oxetan-3-yl)piperidin-4-yl)-1H-pyrazolo[3,4-b]pyrazin-5-yl)benzo[d]thiazol-6-yl)acetic acid] | 4 | 298 | 737 | 
COC(=O)N1CC(N2CCC(c3nn(C)c4ncc(-c5nc6cc(C)c([C@H](OC(C)(C)C)C(=O)O)c(-c7ccc(Cl)cc7)c6s5)nc34)CC2)C1 [Compound 119, (S)-2-(tert-butoxy)-2-(7-(4-chlorophenyl)-2-(3-(1-(1-(methoxycarbonyl)azetidin-3-yl)piperidin-4-yl)-1-methyl-1H-pyrazolo[3,4-b]pyrazin-5-yl)-5-methylbenzo[d]thiazol-6-yl)acetic acid] | 8 | 310 | 332 | 
CC(=O)N1CC(N2CCC(c3nn(C)c4ncc(-c5nc6cc(C)c([C@H](OC(C)(C)C)C(=O)O)c(-c7ccc(Cl)cc7)c6s5)nc34)CC2)C1 [Compound 120, (S)-2-(2-(3-(1-(1-acetylazetidin-3-yl)piperidin-4-yl)-1-methyl-1H-pyrazolo[3,4-b]pyrazin-5-yl)-7-(4-chlorophenyl)-5-methylbenzo[d]thiazol-6-yl)-2-(tert-butoxy)acetic acid] | 3 | 185 | 217 | 
Cc1cc2nc(-c3ccc4c(c3)c(N3CC(C)(C)NC3=O)nn4C)sc2c(-c2ccc(Cl)cc2)c1[C@H](OC(C)(C)C)C(=O)O [Compound 121, (S)-2-(tert-butoxy)-2-(7-(4-chlorophenyl)-2-(3-(4,4-dimethyl-2-oxoimidazolidin-1-yl)-1-methyl-1H-indazol-5-yl)-5-methylbenzo[d]thiazol-6-yl)acetic acid] | 39 | 3480 | 2690 | 
COCC(C)N1CC(c2nn(C)c3ccc(-c4nc5cc(C)c([C@H](OC(C)(C)C)C(=O)O)c(-c6ccc(Cl)cc6)c5s4)cc23)C1 (stereo partly drawn) [Compound 124, (2S)-2-(tert-butoxy)-2-(7-(4-chlorophenyl)-2-(3-(1-(1-methoxypropan-2-yl)azetidin-3-yl)-1-methyl-1H-indazol-5-yl)-5-methylbenzo[d]thiazol-6-yl)acetic acid] | 4 | 1440 | 3440 | 
CCN1CCC(c2nn(C)c3ccc(-c4nc5cc(C)c([C@H](OC(C)(C)C)C(=O)O)c(-c6ccc(Cl)cc6)c5s4)cc23)CC1 [Compound 126, (S)-2-(tert-butoxy)-2-(7-(4-chloro-phenyl)-2-(3-(1-ethylpiperidin-4-yl)-1-methyl-1H-indazol-5-yl)-5-methylbenzo[d]thiazol-6-yl) acetic acid] | 8 | 551 | 540 | 
Cc1cc2nc(-c3ccc4c(c3)c(C3CCN(C(C)C)CC3)nn4C)sc2c(-c2ccc(Cl)cc2)c1[C@H](OC(C)(C)C)C(=O)O [Compound 127, (S)-2-(tert-butoxy)-2-(7-(4-chloro-phenyl)-2-(3-(1-isopropylpiperidin-4-yl)-1-methyl-1H-indazol-5-yl)-5-methylbenzo[d]thiazol-6-yl) acetic acid] | 8 | 932 | 1700 | 
Cc1cc2nc(-c3ccc4c(c3)c(C3CCN(C5CCC5)CC3)nn4C)sc2c(-c2ccc(Cl)cc2)c1[C@H](OC(C)(C)C)C(=O)O [Compound 129, (S)-2-(tert-butoxy)-2-(7-(4-chloro-phenyl)-2-(3-(1-cyclobutylpiperidin-4-yl)-1-methyl-1H-indazol-5-yl)-5-methylbenzo[d]thiazol-6-yl) acetic acid] |  | 509 | 696 | 5
Cc1cc2nc(-c3ccc4c(c3)c(N3CCCN(C)CC3)nn4C)sc2c(-c2ccc(Cl)cc2)c1[C@H](OC(C)(C)C)C(=O)O [Compound 132, (S)-2-(tert-butoxy)-2-(7-(4-chloro-phenyl)-5-methyl-2-(1-methyl-3-(4-methyl-1,4-diazepan-1-yl)-1H-indazol-5-yl)benzo[d]thiazol-6-yl)acetic acid] | 25 | 1100 | 1680 | 
Cc1cc2nc(-c3ccc4c(c3)c(N3CCC(N5CCC5)CC3)nn4C)sc2c(-c2ccc(Cl)cc2)c1[C@H](OC(C)(C)C)C(=O)O [Compound 136, (S)-2-(2-(3-(4-(azetidin-1-yl)piperidin-1-yl)-1-methyl-1H-indazol-5-yl)-7-(4-chlorophenyl)-5-methylbenzo[d]thiazol-6-yl)-2-(tert-butoxy) acetic acid] | 14 | 857 | 1700 | 
Cc1cc2nc(-c3ccc4c(c3)c(N3CCC(C)(C(=O)N(C)C)CC3)nn4C)sc2c(-c2ccc(Cl)cc2)c1[C@H](OC(C)(C)C)C(=O)O [Compound 137, (S)-2-(tert-butoxy)-2-(7-(4-chloro-phenyl)-2-(3-(4-(dimethyl-carbamoyl)-4-methylpiperidin-1-yl)-1-methyl-1H-indazol-5-yl)-5-methylbenzo[d]thiazol-6-yl) acetic acid] | 10 | 697 | 962 | 
Cc1cc2nc(-c3ccc4c(c3)c(N3CCN5C(=O)COC[C@@H]5C3)nn4C)sc2c(-c2ccc(Cl)cc2)c1[C@H](OC(C)(C)C)C(=O)O [Compound 138, (S)-2-(tert-butoxy)-2-(7-(4-chloro-phenyl)-5-methyl-2-(1-methyl-3-((S)-4-oxohexa-hydropyrazino[2,1-c][1,4]oxazin-8 (1H)-yl)-1H-indazol-5-yl)benzo[d]thiazol-6-yl)acetic acid] | 7 | 373 | 678 | 
CO[C@H]1CCN(c2nn(C)c3ccc(-c4nc5cc(C)c([C@H](OC(C)(C)C)C(=O)O)c(-c6ccc(Cl)cc6)c5s4)cc23)C1 [Compound 139, (S)-2-(tert-butoxy)-2-(7-(4-chloro-phenyl)-2-(3-((S)-3-methoxy-pyrrolidin-1-yl)-1-methyl-1H-indazol-5-yl)-5-methylbenzo[d]thiazol-6-yl) acetic acid] | 88 | 7810 | 5780 | 
CO[C@@H]1CCN(c2nn(C)c3ccc(-c4nc5cc(C)c([C@H](OC(C)(C)C)C(=O)O)c(-c6ccc(Cl)cc6)c5s4)cc23)C1 [Compound 140, (S)-2-(tert-butoxy)-2-(7-(4-chloro-phenyl)-2-(3-((R)-3-methoxy-pyrrolidin-1-yl)-1-methyl-1H-indazol-5-yl)-5-methylbenzo[d]thiazol-6-yl) acetic acid] | 29 | 2370 | 2630 | 
Cc1cc2nc(-c3ccc4c(c3)c(N3CC5CCC(C3)O5)nn4C)sc2c(-c2ccc(Cl)cc2)c1[C@H](OC(C)(C)C)C(=O)O [Compound 141, (2S)-2-(2-(3-(8-oxa-3-azabicyclo [3.2.1]octan-3-yl)-1-methyl-1H-indazol-5-yl)-7-(4-chlorophenyl)-5-methylbenzo [d]thiazol-6-yl)-2-(tert-butoxy) acetic acid] | 24 | 3560 | 3930 | 
